Source: US12172983B2, “EGFR inhibitors” (Blueprint Medicines Corporation, priority 2019, dated 2024)
Like-named read-outs stand apart in the source and are kept apart here. Each block holds one molecule with its values, some of them ahead of it.

Columns and labels:
EGFR (L858R T790M C797S) = target: T1, EGFR (L858R T790M C797S) (Homo sapiens, UniProt P00533, C797S/L858R/T790M); assay: Biochemical EGFR inhibition assay (Caliper mobility shift), EGFR LRTMCS mutant; settings: inhibitory activity against EGFR LRTMCS mutant; apparent IC50; read-out: Ext Enz LRTMCS
T1 construct: purchased SignalChem E10-122VG
T1 sequence (P00533 25-1210 T790M/C797S/L858R): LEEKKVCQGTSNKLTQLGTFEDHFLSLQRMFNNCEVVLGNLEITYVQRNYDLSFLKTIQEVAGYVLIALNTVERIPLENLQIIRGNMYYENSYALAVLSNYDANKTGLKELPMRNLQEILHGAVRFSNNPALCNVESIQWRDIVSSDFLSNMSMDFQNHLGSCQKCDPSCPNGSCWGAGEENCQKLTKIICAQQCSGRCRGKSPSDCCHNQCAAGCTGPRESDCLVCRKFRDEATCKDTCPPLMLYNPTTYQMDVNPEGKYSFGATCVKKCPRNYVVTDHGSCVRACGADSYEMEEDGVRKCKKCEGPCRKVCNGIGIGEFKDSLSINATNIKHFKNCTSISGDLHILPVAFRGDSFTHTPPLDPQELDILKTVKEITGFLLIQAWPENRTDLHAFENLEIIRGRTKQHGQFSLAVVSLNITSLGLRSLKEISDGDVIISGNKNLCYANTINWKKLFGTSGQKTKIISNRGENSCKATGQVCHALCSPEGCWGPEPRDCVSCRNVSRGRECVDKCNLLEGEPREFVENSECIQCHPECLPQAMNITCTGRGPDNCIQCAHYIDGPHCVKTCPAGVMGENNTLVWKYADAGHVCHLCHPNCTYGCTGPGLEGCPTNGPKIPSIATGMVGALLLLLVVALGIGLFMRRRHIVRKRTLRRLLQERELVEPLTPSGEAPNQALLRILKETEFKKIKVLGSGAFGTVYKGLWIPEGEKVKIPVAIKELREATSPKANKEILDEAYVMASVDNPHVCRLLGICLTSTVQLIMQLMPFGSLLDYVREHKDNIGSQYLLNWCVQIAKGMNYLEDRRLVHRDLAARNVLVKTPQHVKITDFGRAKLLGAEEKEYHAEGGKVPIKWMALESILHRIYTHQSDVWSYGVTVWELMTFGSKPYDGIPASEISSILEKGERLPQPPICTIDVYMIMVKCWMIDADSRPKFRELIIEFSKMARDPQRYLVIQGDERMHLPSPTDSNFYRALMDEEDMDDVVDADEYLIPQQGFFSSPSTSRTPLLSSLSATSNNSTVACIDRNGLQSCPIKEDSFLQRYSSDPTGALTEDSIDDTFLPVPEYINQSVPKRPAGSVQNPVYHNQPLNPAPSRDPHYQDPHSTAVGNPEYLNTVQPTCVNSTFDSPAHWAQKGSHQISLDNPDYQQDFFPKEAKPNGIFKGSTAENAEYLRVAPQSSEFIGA
Description: Reactions proceeded until between 10% to 20% total peptides were phosphorylated at room temperature (25° C.) and were terminated with 35 mM 2,2′,2″,2′″-(ethane-1,2-diyldinitrilo)tetraacetic acid (EDTA). Product was detected using the Caliper mobility shift detection method where the phosphorylated peptide (product) and substrate were electrophoretically separated and measured. Percent activity was plotted against log concentration of compound and points to generate an apparent IC50.

[1] = tested on: phosphorylation of EGFR (Tyr1068) in NCI-H1975 cell line that harbors the EGFR L858R T790M mutations; assay: NCI-H1975 pEGFR AlphaLISA assay; format: cell-based; settings: 4-5 hours incubation, read-out: Ext pEGFR H1975
Description: Inhibitory effects of the compounds of the disclosure were evaluated in cellular assays that measure level of intracellular phosphorylation of EGFR in NCI-H1975 cell line that harbors the EGFR L858R T790M mutations (ATCC, CRL-5908) using AlphaLISA sureFire ultra p-EGFR (Tyr1068) assay kit (PerkinElmer, ALSU-PEGFR-A50K). The NCI-H1975 cells were seeded at 12.5K/well in 22 μL into 384 well opti plate (PerkinElmer, 6007299) and adhering overnight at 37 C/5% CO2. On the next day, the test compounds and DMSO control were added into H1975 cell plate followed by incubation at 37 C/5% CO2 for 4-5 hours. The cells were then spin down in the 384-well plate and lysed with 10 μL of 1×AlphaLISA lysis buffer followed by shaking at 600 rpm for 10 minutes at room temperature. After that, 5 μL of an acceptor bead mix was added to each well followed by incubation at room temperature for 1.5-2 h in dark. Then 5 μL of a donor bead mix was added to each well followed by overnight incubation at room temperature in dark. On the next day, the plate was read at a compatible plate reader to obtain pEGFR signal. Percent of pEGFR inhibition was plotted against log concentration of compounds to generate IC50 values.

[2] = Homo sapiens, NCI-H1975, inhibition of phosphorylation of mutant EGFR in NCI-H1975 cells
[3] = inhibition of phosphorylation of mutant EGFR in NCI-H1975 cells

SMILES: C[C@@H]1[C@@H](CS(C)(=O)=O)CN1c1cccc2cc(Nc3ccnc(N4C[C@H](F)[C@H](O)C(C)(C)C4)n3)ncc12 (single isomer, unassigned) [Compound 30, (4S,5R)-5-fluoro-1-[4-({8-[(2R,3S)-3-(methanesulfonylmethyl)-2-methylazetidin-1-yl]isoquinolin-3-yl}amino)pyrimidin-2-yl]-3,3-dimethylpiperidin-4-ol or (4R,5S)-5-fluoro-1-[4-({8-[(2R,3S)-3-(methanesulfonylmethyl)-2-methylazetidin-1-yl]isoquinolin-3-yl}amino)pyrimidin-2-yl]-3,3-dimethylpiperidin-4-ol]
IC50 (EGFR (L858R T790M C797S)): ≤ 15 nM | IC50 [1, 2]: ≤ 10 nM

SMILES: CC1(C)CN(c2nccc(Nc3cc4cccc(N5CC(CS(C)(=O)=O)C5)c4cn3)n2)CC(F)(F)[C@@H]1O (single isomer, unassigned) [Compound 34, (4R)-3,3-difluoro-1-[4-({8-[3-(methanesulfonylmethyl)azetidin-1-yl]isoquinolin-3-yl}amino)pyrimidin-2-yl]-5,5-dimethylpiperidin-4-ol or (4S)-3,3-difluoro-1-[4-({8-[3-(methanesulfonylmethyl)azetidin-1-yl]isoquinolin-3-yl}amino)pyrimidin-2-yl]-5,5-dimethylpiperidin-4-ol]
IC50 (EGFR (L858R T790M C797S)): ≤ 15 nM | IC50 [1, 2]: 10.1 to 20 nM

SMILES: C[C@@H]1[C@@H](CS(C)(=O)=O)CN1c1cccc2cc(Nc3ccnc(N4C[C@@H](F)[C@@H](O)[C@](C)(F)C4)n3)ncc12 (single isomer, unassigned) [Compound 35, (3R,4R,5R)-3,5-difluoro-1-[4-({8-[(2R,3S)-3-(methanesulfonylmethyl)-2-methylazetidin-1-yl]isoquinolin-3-yl}amino)pyrimidin-2-yl]-3-methylpiperidin-4-ol or (3S,4S,5S)-3,5-difluoro-1-[4-({8-[(2R,3S)-3-(methanesulfonylmethyl)-2-methylazetidin-1-yl]isoquinolin-3-yl}amino)pyrimidin-2-yl]-3-methylpiperidin-4-ol]
IC50 (EGFR (L858R T790M C797S)): ≤ 15 nM | IC50 [1, 2]: 30.1 to 50 nM

SMILES: CC(C)c1ccc(N2C[C@H](CS(C)(=O)=O)[C@H]2C)c2cnc(Nc3ccnc(N4CC[C@H]5COC[C@H]54)n3)cc12 (single isomer, unassigned) [Compound 40]
IC50 (EGFR (L858R T790M C797S)): ≤ 15 nM | IC50 [1, 2]: ≤ 10 nM

SMILES: CC(C)c1ccc(N2C[C@@H](CS(C)(=O)=O)[C@@H]2C)c2cnc(Nc3ccnc(N4CC[C@@H]5C[C@H]4CO5)n3)cc12 (single isomer, unassigned) [Compound 41, N-(2-((1S,5R)-6-oxa-2-azabicyclo[3.2.1]octan-2-yl)pyrimidin-4-yl)-5-isopropyl-8-((2S,3R)-2-methyl-3-((methylsulfonyl)methyl)azetidin-1-yl)isoquinolin-3-amine or N-(2-((1R,5S)-6-oxa-2-azabicyclo[3.2.1]octan-2-yl)pyrimidin-4-yl)-5-isopropyl-8-((2S,3R)-2-methyl-3-((methylsulfonyl)methyl)azetidin-1-yl)isoquinolin-3-amine]
IC50 (EGFR (L858R T790M C797S)): ≤ 15 nM | IC50 [1, 2]: ≤ 10 nM

SMILES: CC(C)c1ccc(N2CC(CS(C)(=O)=O)C2)c2cnc(Nc3ccnc(N4CC[C@](C)(O)C[C@@H]4C)n3)cc12 (single isomer, unassigned) [Compound 44, (2R,4R)-1-[4-({8-[3-(methanesulfonylmethyl)azetidin-1-yl]-5-(propan-2-yl)isoquinolin-3-yl}amino)pyrimidin-2-yl]-2,4-dimethylpiperidin-4-ol or (2S,4S)-1-[4-({8-[3-(methanesulfonylmethyl)azetidin-1-yl]-5-(propan-2-yl)isoquinolin-3-yl}amino)pyrimidin-2-yl]-2,4-dimethylpiperidin-4-ol]
IC50 (EGFR (L858R T790M C797S)): ≤ 15 nM | IC50 [1, 2]: ≤ 10 nM

SMILES: CC(C)c1ccc(N2CC(CS(C)(=O)=O)C2)c2cnc(Nc3ccnc(N4CC[C@](C)(O)C[C@@H]4C)n3)cc12 (single isomer, unassigned) [Compound 45, (2S,4S)-1-[4-({8-[3-(methanesulfonylmethyl)azetidin-1-yl]-5-(propan-2-yl)isoquinolin-3-yl}amino)pyrimidin-2-yl]-2,4-dimethylpiperidin-4-ol or (2R,4R)-1-[4-({8-[3-(methanesulfonylmethyl)azetidin-1-yl]-5-(propan-2-yl)isoquinolin-3-yl}amino)pyrimidin-2-yl]-2,4-dimethylpiperidin-4-ol]
IC50 (EGFR (L858R T790M C797S)): ≤ 15 nM | IC50 [1, 3]: 10.1 to 20 nM

SMILES: CC(C)c1ccc(N2C[C@H](CS(C)(=O)=O)[C@H]2C)c2cnc(Nc3ccnc(N4CCC(C)(O)CC4)n3)cc12 (single isomer, unassigned) [Compound 46]
IC50 (EGFR (L858R T790M C797S)): ≤ 15 nM | IC50 [1, 2]: ≤ 10 nM

SMILES: CC(C)c1ccc(N2C[C@H](CS(C)(=O)=O)[C@H]2C)c2cnc(Nc3ccnc(N4CC[C@H](O)C[C@@H]4C)n3)cc12 (single isomer, unassigned) [Compound 47, (2S,4S)-1-[4-({8-[(2R,3S)-3-(methanesulfonylmethyl)-2-methylazetidin-1-yl]-5-(propan-2-yl)isoquinolin-3-yl}amino)pyrimidin-2-yl]-2-methylpiperidin-4-ol or (2R,4R)-1-[4-({8-[(2R,3S)-3-(methanesulfonylmethyl)-2-methylazetidin-1-yl]-5-(propan-2-yl)isoquinolin-3-yl}amino)pyrimidin-2-yl]-2-methylpiperidin-4-ol]
IC50 (EGFR (L858R T790M C797S)): 15.1 to 20 nM | IC50 [1, 2]: ≤ 10 nM

SMILES: CC(C)c1ccc(N2C[C@H](CS(C)(=O)=O)[C@H]2C)c2cnc(Nc3ccnc(N4CC[C@H](O)C[C@@H]4C)n3)cc12 (single isomer, unassigned) [Compound 48, (2R,4R)-1-[4-({8-[(2R,3S)-3-(methanesulfonylmethyl)-2-methylazetidin-1-yl]-5-(propan-2-yl)isoquinolin-3-yl}amino)pyrimidin-2-yl]-2-methylpiperidin-4-ol or (2S,4S)-1-[4-({8-[(2R,3S)-3-(methanesulfonylmethyl)-2-methylazetidin-1-yl]-5-(propan-2-yl)isoquinolin-3-yl}amino)pyrimidin-2-yl]-2-methylpiperidin-4-ol]
IC50 (EGFR (L858R T790M C797S)): ≤ 15 nM | IC50 [1, 3]: ≤ 10 nM

SMILES: CC(C)c1ccc(N2C[C@H](CS(C)(=O)=O)[C@H]2C)c2cnc(Nc3ccnc(N4CC[C@H](O)C[C@H]4C)n3)cc12 (single isomer, unassigned) [Compound 49, (2R,4S)-1-[4-({8-[(2R,3S)-3-(methanesulfonylmethyl)-2-methylazetidin-1-yl]-5-(propan-2-yl)isoquinolin-3-yl}amino)pyrimidin-2-yl]-2-methylpiperidin-4-ol or (2S,4R)-1-[4-({8-[(2R,3S)-3-(methanesulfonylmethyl)-2-methylazetidin-1-yl]-5-(propan-2-yl)isoquinolin-3-yl}amino)pyrimidin-2-yl]-2-methylpiperidin-4-ol]
IC50 (EGFR (L858R T790M C797S)): ≤ 15 nM | IC50 [1, 2]: ≤ 10 nM

Second part, the molecule after the results:

IC50 (EGFR (L858R T790M C797S)): ≤ 15 nM | IC50 [1, 2]: 10.1 to 20 nM
SMILES: CCc1cnc(N2CC(CS(C)(=O)=O)C2)c2cnc(Nc3ccnc(N4CC[C@@H](O)[C@@](C)(F)C4)n3)cc12 (single isomer, unassigned) [Compound 31]

IC50 (EGFR (L858R T790M C797S)): ≤ 15 nM | IC50 [1, 2]: 20.1 to 30 nM
SMILES: COc1ccc(N2CC(CS(C)(=O)=O)C2)c2cnc(Nc3ccnc(N4CC[C@@H](O)[C@@](C)(F)C4)n3)cc12 (single isomer, unassigned) [Compound 32]

IC50 (EGFR (L858R T790M C797S)): ≤ 15 nM | IC50 [1, 2]: ≤ 10 nM
SMILES: C[C@@H]1[C@@H](CS(C)(=O)=O)CN1c1ccc(F)c2cc(Nc3ccnc(N4CC[C@@H](O)[C@@](C)(F)C4)n3)ncc12 (single isomer, unassigned) [Compound 33]

IC50 (EGFR (L858R T790M C797S)): ≤ 15 nM | IC50 [1, 2]: 20.1 to 30 nM
SMILES: C[C@]1(F)CN(c2nccc(Nc3cc4c(C5CC5)ccc(N5CC(CS(C)(=O)=O)C5)c4cn3)n2)CC[C@H]1O (single isomer, unassigned) [Compound 51]

IC50 (EGFR (L858R T790M C797S)): ≤ 15 nM | IC50 [1, 2]: ≤ 10 nM
SMILES: CO[C@@H]1CCN(c2nccc(Nc3cc4c(C(C)C)ccc(N5CC(CS(C)(=O)=O)C5)c4cn3)n2)C[C@@H]1O (single isomer, unassigned) [Compound 52, (3S,4R)-1-(4-(5-isopropyl-8-(3-(methylsulfonylmethyl)azetidin-1-yl)isoquinolin-3-ylamino)pyrimidin-2-yl)-4-methoxypiperidin-3-ol or (3R,4S)-1-(4-(5-isopropyl-8-(3-(methylsulfonylmethyl)azetidin-1-yl)isoquinolin-3-ylamino)pyrimidin-2-yl)-4-methoxypiperidin-3-ol]
